# Test results from the supplement of paper PMC10949913.
# Columns and labels:
# Assay in all cases: area under concentration-response curve (viability) (AUC (a.u.)); higher = less active
# Conditions in all cases: 48 h
# NCI-H295R = system: NCI-H295R
# Procedure, shortened: (§1)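 Three adrenocortical carcinoma cell lines were plated in 1,536-well plates at 500–1,000 cells/well in 5 µL medium, and 23 nL of each library compound was added at 11 concentrations. After 48 h, CellTiter-Glo was applied for 15 minutes at room temperature before luminescence was read. Each plate's signals were normalised to vehicle and empty-well controls. AC50 and area under the curve were taken from fitted concentration-response curves, with only inhibitory or non-responding curve classes retained.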
# CU-ACC1 = system: CU-ACC1
# Procedure, shortened: as §1
# CU-ACC2 = system: CU-ACC2
# Procedure, shortened: as §1
SMILES,area under concentration-response curve (NCI-H295R),area under concentration-response curve (CU-ACC1),area under concentration-response curve (CU-ACC2)
CCc1cccc2c3c([nH]c12)[C@@](CC)(CC(=O)O)OCC3,525,518,605
OC(=O)CNC(=O)\C1=C(/O)C2=CC=CC=C2N(CC3=CC=CC=C3)C1=O,529,441,539
CCCCCN(C)CCC(O)(P(=O)([O-])O)P(=O)(O)O,611,612,590
CCOC(=O)/C=C/[C@H](C[C@@H]1CCNC1=O)NC(=O)[C@@H](CC(=O)[C@@H](NC(=O)c1cc(C)on1)C(C)C)Cc1ccc(F)cc1,539,530,523
Clc1cccc(C(c2ccc3nc[nH]c3c2)n2ccnc2)c1 (configuration not stated),491,534,633
Cc1ccc(C(=O)c2cc(O)c(O)c([N+](=O)[O-])c2)cc1,598,551,645
C[C@]12CC(=O)[C@H]3[C@@H](CC\C4=C\C(=O)\C=C/[C@]34C)[C@@H]1CC[C@]2(O)C(=O)CO,580,547,652
CC(C)(C(=O)NCC(F)(F)C(F)(F)F)C(=O)N[C@@H]1C(=O)Nc2ccccc2-c2ccccc21,459,413,500
COc1ccccc1OCC(O)CN1CCN(CC(=O)Nc2c(C)cccc2C)CC1 (configuration not stated),569,535,627
O=C(Cc1ccccc1)Nc1nnc(CCSCCc2nnc(NC(=O)Cc3ccccc3)s2)s1,507,509,532
CC(C)(C)NCC(O)c1ccc(O)c(CO)c1 (configuration not stated),567,504,598
Clc1ccc(-c2nc3sccn3c2/C=N/OCc2ccc(Cl)c(Cl)c2)cc1,425,490,549
CCCCCCCCCCCC(CC1OC(=O)C1CCCCCC)OC(=O)C(CC(C)C)NC=O (configuration not stated),336,474,517
C[C@]12CC[C@H]3[C@@H](CCC/4=C/C(=O)CC[C@]34C)[C@@H]1CC[C@@H]2OC(=O)CCC5CCCC5,569,581,618
O=[N+]([O-])c1ccc(-c2nc(-c3ccc(F)cc3)c(-c3ccncc3)[nH]2)cc1,489,498,567
COc1ccc(CCC(=O)Nc2nc3ccc(Cl)cc3s2)cc1OC,563,575,600
CCCC(CCC)C(=O)NC/1=N/C(=O)N(/C=C1)[C@@H]2O[C@H](CO)[C@@H](O)C2(F)F,543,496,481
OC[C@H]1O[C@H](C[C@@H]1O)N2\C=C(F)/C(=O)NC2=O,497,516,584
C[C@@H]1C(=O)OC2[C@H](O)[C@]34[C@H]5C[C@@H](C(C)(C)C)[C@]36[C@@H](OC(=O)[C@@H]6O)O[C@@]4(C(=O)O5)[C@]21O (some centres not stated),532,463,556
CC1=CC=CC=C1N2\C(=N/C3=C(C(=CC=C3)C)C2=O)C[N]4C=NC5=C4N=CN=C5N,583,555,643
OC(=O)\C1=C\N(C2=CC=C(F)C=C2)C3=C(C=C(F)C(=C3)N4CCNCC4)C1=O,497,485,549
N=C1S/C(=C\c2ccc(-c3ccc4c(c3)C(=O)NC4=O)o2)C(=O)N1c1ccc(Br)cc1,618,563,675

SMILES,area under concentration-response curve (NCI-H295R),area under concentration-response curve (CU-ACC1),area under concentration-response curve (CU-ACC2)
CCOP(=O)(OCC)C(C)NC(=O)N(CCCl)N=O (configuration not stated),510,488,540
OC[C@H]1O[C@H](C[C@@H]1O)N2/C=C(C(=O)NC2=O)/C(F)(F)F,583,538,650
O=C(O)CNC(=O)c1nc(Cl)c2ccccc2c1O,529,498,604
COc1cc2ncnc(Nc3cc(Br)c(O)c(Br)c3)c2cc1OC,581,523,650
O=C(O)[C@@H](c1ccc(OCc2ccc3ccccc3n2)cc1)C1CCCC1,493,454,561
COc1ccc([S+](=O)([O-])N2CCc3cccc(-c4ccncc4)c32)cc1,472,576,563
C1Cc2[nH]nc(-c3nn[nH]n3)c2C1,514,544,624
CCOC(=O)C(C)OC1=CC=CC2=C1\C=C/N(CC(=O)NC3=CC=C4OCCOC4=C3)C2=O (configuration not stated),538,505,602
N#C/N=C(\NCCCCCCOc1ccc(Cl)cc1)Nc1ccncc1,425,269,367
O=C([O-])Cc1ccccc1Nc1c(Cl)cccc1Cl,585,536,645
NC/1=N/C(=O)C/2=C(/NCC3CN(CN23)C4=CC=C(C=C4)C(=O)N[C@@H](CCC(O)=O)C(O)=O)N1 (some centres not stated),526,475,565
Cc1ccc(C(=O)Nc2ccc([S+](=O)([O-])O)c3cc([S+](=O)([O-])O)cc([S+](=O)([O-])O)c23)cc1NC(=O)c1cccc(NC(=O)Nc2cccc(C(=O)Nc3cc(C(=O)Nc4ccc([S+](=O)([O-])O)c5cc([S+](=O)([O-])O)cc([S+](=O)([O-])O)c45)ccc3C)c2)c1,488,420,488
Cc1c(N)nc([C@H](CC(N)=O)NC[C@@H](N)C(N)=O)nc1C(=O)N[C@H](C(=O)N[C@@H](C)[C@H](O)[C@@H](C)C(=O)N[C@@H](C(=O)NCCc1nc(-c2nc(C(=O)NCCC[S+](C)C)cs2)cs1)[C@@H](C)O)C(O[C@H]1O[C@H](CO)[C@H](O)[C@@H](O)[C@H]1O[C@H]1O[C@H](CO)[C@@H](O)[C@H](OC(N)=O)[C@@H]1O)c1c[nH]cn1 (some centres not stated),530,508,614
N[C@@H](Cc1cc(I)c(Oc2cc(I)c(O)c(I)c2)c(I)c1)C(=O)O,564,548,620
Nc1nc(F)nc2c1ncn2[C@@H]1O[C@H](COP(=O)(O)O)[C@@H](O)[C@@H]1O,514,527,521
CC[C@@H](Oc1cccc(CN(CCCOc2ccc(OC)cc2)c2nc3ccccc3o2)c1)C(=O)O,519,562,571
Cn1nccc1Nc1nccc(-c2cc3c(s2)C(C)(C)N(CCN2CCOCC2)C3=O)n1,544,528,589
OC[C@H]1O[C@@H](S[C@@H]2O[C@H](CO)[C@H](O)[C@H](n3cc(-c4cccc(F)c4)nn3)[C@H]2O)[C@H](O)[C@@H](n2cc(-c3cccc(F)c3)nn2)[C@H]1O,547,507,590
COC(=O)Nc1nc2cc(C(=O)c3cccs3)ccc2[nH]1,382,496,516
Cc1nn(C)c(COc2ccc(N3CCN([S+](=O)([O-])N(C)C)CC3)cc2)c1-c1cccc2c(CCCOc3cccc4ccccc34)c(C(=O)O)n(CCN3CCOCC3)c12,508,517,580
CN1C(=O)[C@@H](NC(=O)[C@H](CCC(F)(F)F)[C@H](CCC(F)(F)F)C(N)=O)\N=C(C2=CC=CC=C2)/C3=CC=CC=C13,530,514,610
NCC/1=C/NC(=S)N1[C@H]2CCC3=C(F)C=C(F)C=C3C2,550,495,547
